In this test the target is T1, CCR(9) (Homo sapiens, UniProt P51686).
T1 construct: MOLT-4 cells were collected by centrifugation at 400×g at room temperature, then suspended at 50 million/ml in human serum; host or cells: MOLT-4
T1 sequence (P51686 1-369): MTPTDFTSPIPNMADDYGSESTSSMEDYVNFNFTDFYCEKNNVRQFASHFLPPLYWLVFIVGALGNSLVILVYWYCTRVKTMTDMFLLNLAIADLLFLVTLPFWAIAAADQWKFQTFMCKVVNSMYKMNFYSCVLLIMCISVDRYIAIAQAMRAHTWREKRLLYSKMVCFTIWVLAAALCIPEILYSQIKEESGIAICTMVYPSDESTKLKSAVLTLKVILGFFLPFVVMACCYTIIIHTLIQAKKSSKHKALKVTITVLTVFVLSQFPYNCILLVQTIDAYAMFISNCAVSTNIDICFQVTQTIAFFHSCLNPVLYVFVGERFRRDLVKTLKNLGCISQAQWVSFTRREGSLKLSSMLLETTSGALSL
The test is described as follows: Serum chemotaxis assay (MOLT-4 cells, TECK-induced migration, ChemoTX). Conditions: MOLT-4 cells in human serum, migration to recombinant human TECK, 90 minutes at 37° C. In kind it is cell-based. How it is done: MOLT-4 cells were obtained from the American Type Culture Collection (Manassas, VA) and cultured in RPMI tissue culture medium supplemented with 10% fetal calf serum (FCS) in a humidified 5% CO2 incubator at 37° C. Recombinant human chemokine proteins TECK was obtained from R&D Systems (Minneapolis, MN). ChemoTX™ chemotaxis microchambers were purchased from Neuro Probe (Gaithersburg, MD). CyQUANT™ cell proliferation kits were purchased from Molecular Probes (Eugene, Oregon). Calcium indicator dye Fluo-4 AM was purchased from Molecular Devices (Mountain View, CA).
A serum chemotaxis assay was used to determine the efficacy of potential receptor antagonists at blocking the migration mediated through chemokine receptors, such as CCR(9). This assay was performed using the ChemoTX® microchamber system with a 5-μm pore-sized polycarbonate membrane. MOLT-4 cells were collected by centrifugation at 400×g at room temperature, then suspended at 50 million/ml in human serum, containing 50 mM HEPES (final pH of 7.2). The compound being tested or an equivalent volume of its solvent (DMSO) was then added to the cell/serum mixture at a final DMSO concentration of 0.125% (v/v), and this mixture was then incubated together at 37° C. for one hour. Separately, recombinant human TECK was diluted with chemotaxis buffer (HBSS+0.1% BSA), generally spanning a range from 0.1 nM to 500 nM, after which 29 μl of diluted chemokine was placed in the lower wells of the ChemoTX® plate. The 5-μm (pore size) polycarbonate membrane was placed onto the plate, and 20 μL of the cell/compound mixture was transferred onto each well of the membrane. The plates were incubated at 37° C. for 90 minutes, after which the polycarbonate membranes were removed and 5 μl of the DNA-intercalating agent CyQUANT (Invitrogen, Carlsbad, CA) was added to the lower wells. The amount of fluorescence, corresponding to the number of migrated cells, was measured using a Spectrafluor Plus plate reader (TECAN, San Jose, CA).
The A2 values were calculated from the following equation, comparing the efficacy of the test compound with that of the DMSO-only control at equi-active chemokine levels: Log(A2)=log[drug(M)]−log[(A′/A)−1] where A reflects the potency of the agonist in the absence of antagonist and A′ reflects the potency of the agonist in the presence of antagonist at a given concentration of drug ([drug(M)]). In Vivo Efficacy Models for Human IBD

46 molecules from patent US12139475B2, “2-oxindole compounds” (CHEMOCENTRYX, INC., priority 2016, dated 2024) can be followed below.

Structures are written as SMILES.

Take `CC1(C)CCc2cc(C3(C)C(=O)N(c4cccc(C(=O)O)c4)c4cc(Cl)ccc43)ccc2O1` (stereo not shown): the “Chemotaxis A2” value is listed as “++ (500 nM > A2 ≥ 100 nM)”.

As to `CC(C)(C)c1ccc(C2(C)C(=O)N(c3cccc(C(=O)O)c3)c3ccc(Cl)cc32)cc1F` (stereo not shown), the “Chemotaxis A2” value is recorded as “+++ (100 nM > A2)”.

Turning to `Cc1ccc2c(c1)C(C)(c1ccc(C(C)(C)C)cc1)C(=O)N2c1cccc(C(=O)O)c1` (stereo not shown), the “Chemotaxis A2” value was “++ (500 nM > A2 ≥ 100 nM)”.

`Cc1ccc2c(c1)C(C)(c1ccc(C(C)(C)C)cc1)C(=O)N2c1ccc(C(=O)O)cc1` (stereo not shown): the “Chemotaxis A2” value is “++ (500 nM > A2 ≥ 100 nM)”.

Consider `CC(C)(C)c1ccc([C@]2(C)C(=O)N(c3ccc(F)c(C(=O)O)c3)c3ccc(Cl)cc32)cc1`, for which the “Chemotaxis A2” value is reported as “+++ (100 nM > A2)”.

Take `Cc1ccc(N2C(=O)[C@@](C)(c3ccc(C(C)(C)C)cc3)c3cc(Cl)ccc32)cc1C(=O)O`: the “Chemotaxis A2” value is recorded as “+++ (100 nM > A2)”.

On to `Cc1ccc(N2C(=O)[C@@](C)(c3ccc4c(c3)CCC(C)(C)O4)c3cc(Cl)ccc32)cc1C(=O)O`, for which the “Chemotaxis A2” value is “+++ (100 nM > A2)”.

On to `CC1(C)CCc2cc([C@]3(C)C(=O)N(c4ccc(C(=O)O)cc4)c4ccc(Cl)cc43)ccc2O1`, for which the “Chemotaxis A2” value is recorded as “+++ (100 nM > A2)”.

Turning to `CC1(C)CCc2cc([C@]3(C)C(=O)N(c4ccc(F)c(C(=O)O)c4)c4ccc(Cl)cc43)ccc2O1`, the “Chemotaxis A2” value was “+++ (100 nM > A2)”.

In the case of `CC1(C)CCc2cc([C@]3(C)C(=O)N(c4ccc(Cl)c(C(=O)O)c4)c4ccc(Cl)cc43)ccc2O1`, the “Chemotaxis A2” value is on record as “+++ (100 nM > A2)”.

On to `CC1(C)CCc2cc([C@]3(C)C(=O)N(c4ccc(C(=O)O)c(Cl)c4)c4ccc(Cl)cc43)ccc2O1`, for which the “Chemotaxis A2” value is listed as “+++ (100 nM > A2)”.

For `CC1(C)CCc2cc([C@]3(C)C(=O)N(c4cccc(CC(=O)O)c4)c4ccc(Cl)cc43)ccc2O1`, the “Chemotaxis A2” value was “+++ (100 nM > A2)”.

As to `Cc1ccc2c(c1)[C@](C)(c1ccc3c(c1)CCC(C)(C)O3)C(=O)N2c1cccc(C(=O)O)c1`, the “Chemotaxis A2” value is on record as “+++ (100 nM > A2)”.

With `Cc1ccc2c(c1)[C@](C)(c1ccc3c(c1)CCC(C)(C)O3)C(=O)N2c1ccc(C(=O)O)cc1`, the “Chemotaxis A2” value was “+++ (100 nM > A2)”.

Turning to `CC1(C)CCc2cc([C@]3(C)C(=O)N(c4ccc(OC(F)(F)F)c(C(=O)O)c4)c4ccc(Cl)cc43)ccc2O1`, the “Chemotaxis A2” value is given as “+++ (100 nM > A2)”.

Consider `CC1(C)CCc2cc([C@]3(C)C(=O)N(c4ccc(C(=O)O)c(F)c4)c4ccc(Cl)cc43)ccc2O1`, for which the “Chemotaxis A2” value is “+++ (100 nM > A2)”.

Turning to `Cc1cc(N2C(=O)[C@@](C)(c3ccc4c(c3)CCC(C)(C)O4)c3cc(Cl)ccc32)ccc1C(=O)O`, the “Chemotaxis A2” value was “+++ (100 nM > A2)”.

`CC1(C)CCc2cc([C@]3(C)C(=O)N(c4ccc(CCC(=O)O)cc4)c4ccc(Cl)cc43)ccc2O1`: the “Chemotaxis A2” value is “+++ (100 nM > A2)”.

Consider `CCc1ccc(N2C(=O)[C@@](C)(c3ccc4c(c3)CCC(C)(C)O4)c3cc(Cl)ccc32)cc1C(=O)O`, for which the “Chemotaxis A2” value is recorded as “+++ (100 nM > A2)”.

With `COc1cc(N2C(=O)[C@@](C)(c3ccc4c(c3)CCC(C)(C)O4)c3cc(Cl)ccc32)ccc1C(=O)O`, the “Chemotaxis A2” value is reported as “+++ (100 nM > A2)”.

`CC1(C)CCc2cc([C@]3(C)C(=O)N(c4cccc(CCC(=O)O)c4)c4ccc(Cl)cc43)ccc2O1`: the “Chemotaxis A2” value was “+++ (100 nM > A2)”.

Regarding `CC1(C)CCc2cc([C@]3(C)C(=O)N(Cc4cccc(C(=O)O)c4)c4ccc(Cl)cc43)ccc2O1`, the “Chemotaxis A2” value was “+++ (100 nM > A2)”.

Turning to `CC(C(=O)O)c1cccc(N2C(=O)[C@@](C)(c3ccc4c(c3)CCC(C)(C)O4)c3cc(Cl)ccc32)c1` (stereo partly shown), the “Chemotaxis A2” value was “+++ (100 nM > A2)”.

For the molecule `CC1(C)CCc2cc([C@]3(C)C(=O)N(Cc4ccccc4C(=O)O)c4ccc(Cl)cc43)ccc2O1`, the “Chemotaxis A2” value is given as “+++ (100 nM > A2)”.

For the molecule `CC1(C)CCc2cc([C@]3(C)C(=O)N(c4cccc(C(C)(C)C(=O)O)c4)c4ccc(Cl)cc43)ccc2O1`, the “Chemotaxis A2” value is on record as “+++ (100 nM > A2)”.

As for `COc1ccc(CN2C(=O)[C@@](C)(c3ccc4c(c3)CCC(C)(C)O4)c3cc(Cl)ccc32)cc1C(=O)O`, the “Chemotaxis A2” value was “+++ (100 nM > A2)”.

Turning to `CC(c1cccc(C(=O)O)c1)N1C(=O)[C@@](C)(c2ccc3c(c2)CCC(C)(C)O3)c2cc(Cl)ccc21` (stereo partly shown), the “Chemotaxis A2” value was “+++ (100 nM > A2)”.

Turning to `CC1(C)CCc2cc([C@]3(C)C(=O)N(Cc4ccc(F)c(C(=O)O)c4)c4ccc(Cl)cc43)ccc2O1`, the “Chemotaxis A2” value is “+++ (100 nM > A2)”.

For the molecule `Cc1ccc(CN2C(=O)[C@@](C)(c3ccc4c(c3)CCC(C)(C)O4)c3cc(Cl)ccc32)cc1C(=O)O`, the “Chemotaxis A2” value is reported as “+++ (100 nM > A2)”.

Consider `Cc1ccc(CN2C(=O)[C@@](C)(c3ccc4c(c3)CCC(C)(C)O4)c3cc(Cl)ccc32)c(C(=O)O)c1`, for which the “Chemotaxis A2” value is “+++ (100 nM > A2)”.

Regarding `CC1(C)CCc2cc([C@]3(C)C(=O)N(c4cccc(OCC(=O)O)c4)c4ccc(Cl)cc43)ccc2O1`, the “Chemotaxis A2” value is given as “+++ (100 nM > A2)”.

With `CC1(C)CCc2cc([C@]3(C)C(=O)N(Cc4ccc(F)cc4C(=O)O)c4ccc(Cl)cc43)ccc2O1`, the “Chemotaxis A2” value is listed as “+++ (100 nM > A2)”.

For `COc1ccc(CN2C(=O)[C@@](C)(c3ccc4c(c3)CCC(C)(C)O4)c3cc(Cl)ccc32)c(C(=O)O)c1`, the “Chemotaxis A2” value is recorded as “+++ (100 nM > A2)”.

On to `CC1(C)CCc2cc([C@]3(C)C(=O)N(c4ccc(OCC(=O)O)cc4)c4ccc(Cl)cc43)ccc2O1`, for which the “Chemotaxis A2” value is reported as “+++ (100 nM > A2)”.

As to `CC1(C)CCc2cc([C@]3(C)C(=O)N(c4ccc(CCCC(=O)O)cc4)c4ccc(Cl)cc43)ccc2O1`, the “Chemotaxis A2” value is “+++ (100 nM > A2)”.

In the case of `CCOc1ccc(N2C(=O)[C@@](C)(c3ccc4c(c3)CCC(C)(C)O4)c3cc(Cl)ccc32)cc1C(=O)O`, the “Chemotaxis A2” value is given as “+++ (100 nM > A2)”.

For `CC(C)Oc1ccc(N2C(=O)[C@@](C)(c3ccc4c(c3)CCC(C)(C)O4)c3cc(Cl)ccc32)cc1C(=O)O`, the “Chemotaxis A2” value is “+++ (100 nM > A2)”.

Regarding `CC1(C)CCc2cc([C@]3(C)C(=O)N(Cc4ccc(Cl)cc4C(=O)O)c4ccc(Cl)cc43)ccc2O1`, the “Chemotaxis A2” value is “+++ (100 nM > A2)”.

`Cc1cc(CN2C(=O)[C@@](C)(c3ccc4c(c3)CCC(C)(C)O4)c3cc(Cl)ccc32)ccc1C(=O)O`: the “Chemotaxis A2” value is given as “+++ (100 nM > A2)”.

With `Cc1ccc(C(=O)O)c(CN2C(=O)[C@@](C)(c3ccc4c(c3)CCC(C)(C)O4)c3cc(Cl)ccc32)c1`, the “Chemotaxis A2” value is listed as “+++ (100 nM > A2)”.

In the case of `Cc1cccc(CN2C(=O)[C@@](C)(c3ccc4c(c3)CCC(C)(C)O4)c3cc(Cl)ccc32)c1C(=O)O`, the “Chemotaxis A2” value is given as “+++ (100 nM > A2)”.

Consider `COc1cc(C(=O)O)cc(N2C(=O)[C@@](C)(c3ccc4c(c3)CCC(C)(C)O4)c3cc(Cl)ccc32)c1`, for which the “Chemotaxis A2” value is reported as “+++ (100 nM > A2)”.

As to `Cc1cc(C(=O)O)cc(N2C(=O)[C@@](C)(c3ccc4c(c3)CCC(C)(C)O4)c3cc(Cl)ccc32)c1`, the “Chemotaxis A2” value was “+++ (100 nM > A2)”.

With `CC1(C)CCc2cc([C@]3(C)C(=O)N(c4ccc(C(F)(F)F)c(C(=O)O)c4)c4ccc(Cl)cc43)ccc2O1`, the “Chemotaxis A2” value is reported as “+++ (100 nM > A2)”.

Turning to `Cc1c(CN2C(=O)[C@@](C)(c3ccc4c(c3)CCC(C)(C)O4)c3cc(Cl)ccc32)cccc1C(=O)O`, the “Chemotaxis A2” value is recorded as “+++ (100 nM > A2)”.

Consider `Cc1cccc(C(=O)O)c1CN1C(=O)[C@@](C)(c2ccc3c(c2)CCC(C)(C)O3)c2cc(Cl)ccc21`, for which the “Chemotaxis A2” value is “+++ (100 nM > A2)”.
